Source: ChEMBL document CHEMBL3046079, “Synthesis, herbicidal activity, and mode of action of IR 5790” (J Agric Food Chem, 2001)
Values after ≈ are worked out from the molar mass of the structure shown.

Key:
[1] = Aqueous solubility of the compound; format: physicochemical; conditions: water
[2] = Solubility of the compound in organis solvent; format: physicochemical
[3] = molecular target: T1, Putative protoporphyrinogen IX oxidase (Cucumis sativus) (UniProt C6L817); test: Inhibition of protoporphyrin oxidase in Cucumis sativus (cucumber) cotyledon disc assessed as increase in extraplastidic protoporphyrin 9 accumulation at 10 uM incubated in dim light for 2 hr by HPLC analysis relative to control
T1 sequence (whole entry): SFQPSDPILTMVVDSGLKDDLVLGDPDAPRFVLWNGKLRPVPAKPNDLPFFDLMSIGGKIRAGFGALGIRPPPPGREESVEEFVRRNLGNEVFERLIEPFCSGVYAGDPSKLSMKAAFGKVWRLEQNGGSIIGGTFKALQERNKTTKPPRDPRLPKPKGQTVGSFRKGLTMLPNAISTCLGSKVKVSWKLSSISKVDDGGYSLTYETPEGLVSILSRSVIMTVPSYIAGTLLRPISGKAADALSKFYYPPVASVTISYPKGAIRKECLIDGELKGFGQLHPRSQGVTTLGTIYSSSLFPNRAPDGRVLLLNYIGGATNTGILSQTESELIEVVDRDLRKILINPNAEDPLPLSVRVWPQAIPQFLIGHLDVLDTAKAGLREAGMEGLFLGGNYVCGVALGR

[4] = molecular target: T1, Putative protoporphyrinogen IX oxidase (Cucumis sativus); test: Inhibition of protoporphyrin oxidase in Cucumis sativus (cucumber) cotyledon disc assessed as increase in extraplastidic protoporphyrin 9 accumulation at 100 uM incubated in dim light for 2 hr by HPLC analysis relative to control

| SMILES | solubility [1] [µg/mL] | solubility [2] [µg/mL] | fold change (FC) [3] | fold change (FC) [4] |
| --- | --- | --- | --- | --- |
| C#CCOc1cc(-n2nc(C(C)(C)C)oc2=O)c(Cl)cc1Cl [OXADIARGYL] | 0.37 (≈ 1.08 µM) | > 250000 | – | – |
| COC(=O)c1cc(Oc2ccc(C(F)(F)F)cc2Cl)ccc1[N+](=O)[O-] | – | – | 369 | 390 |
| CC(C)Oc1cc(-n2nc(C(C)(C)C)oc2=O)c(Cl)cc1Cl [OXADIAZON] | 0.7 (≈ 2.03 µM) | > 250000 | – | – |
